# Reference: PubChem BioAssay (NCI)
# Values joined by “and” are separate entries in the source; they are usually repeats but may differ in a detail not shown here. Equal entries are not always repeated.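 Step 1: Grow cells in 96-well plates. Step 2: Expose to compound for 48 hours at 5 concentrations. Step 3: Interpolate endpoints linearly; if unreached, use highest concentration. The concentration for 50% growth inhibition is given as GI50. TGI is the concentration that stops growth completely.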
# System: HOP-92 NSCLC
# Assay: DTP human tumour cell line panel, 48 h
SMILES,GI50 [µM],TGI
C[C@]12CCc3sc(NCCc4ccccc4)nc3C1=CC[C@@H]1[C@@H]2CC[C@]2(C)C(=O)CC[C@@H]12,2.75,9.1 µM
CCN(Cc1ccc(F)cc1)c1ccc(CO)c(F)c1,9.52,37.9 µM
c1ccc(CN2CCC3(CC2)SSC2(CCN(Cc4ccccc4)CC2)S3)cc1,–,> 100 µM
O=C(Cn1c(=O)c(-c2ccccc2)nc2ccccc21)Nc1ccc(F)cc1,22.5,86.2 µM
CCOC(=O)c1c2c(n(Cc3ccc(Cl)cc3Cl)c1C)-c1nc[nH]c1C(=O)C2=O,1.28,2.75 µM
COc1cccc2c1C(=O)c1c(O)c3c(c(O)c1C2=O)CC(O)(C(O)CO)CC3OC1CC(N2CCOCC2)C(O)C(C)O1 (stereo not given),0.0188,0.0652 µM
O=C(O)C1OC1(c1cccc(Cl)c1)c1ccccc1Cl (stereo not given),–,94.4 µM
CCCCC[C@H]1C/C=C2/C(=O)C=C[C@@H]2C/C=C\CCCC(=O)O[C@@H](CCCCC)C/C=C2/C(=O)C=C[C@@H]2C/C=C\CCCC(=O)O1,0.593,1.2 µM
COC1/C=C/C(C)C(C(C)C(OC)C(C)CCC(=O)C(C)C(C/C=C/N(C)C=O)OC)OC(=O)/C=C/C=C(\C)CC(OC)CC2=CC(=O)O[C@H](C2)C(C)C(OC)CC(OC)/C=C/C(C)C(OC)C1 (stereo not given in full),0.0161,0.0489 µM and 0.0313 µM
Cc1cc(C(=C2C=CC(=Nc3ccccc3)C=C2)c2ccc(Nc3ccccc3)cc2)ccc1N,0.475,1.73 µM
CNCCCn1c2c(c3ccc([N+](=O)[O-])cc3c1=O)C(=O)c1cc(OC)cnc1-2,0.237,2.44 µM
C#CC1(O)C(COP(=O)(O)OC(COCCCCCCCCCCCCCCCCCC)COP(=O)(O)OCC2OC(n3cc(F)c(=O)[nH]c3=O)CC2O)OC(n2ccc(N)nc2=O)C1O (stereo not given),33.4,10.6 µM and > 95.6 µM
Cc1cc(Cl)ccc1Nc1nc(C(F)(F)F)ccc1C(=O)N/N=C/c1ccc(Cl)cc1,1.94,6.85 µM
COc1cc2oc3cc(=O)cc4oc(-c5ccccc5)cc(c2c2c1CCC(c1ccccc1)O2)c43 (stereo not given),–,> 100 µM
c1cc2n(n1)CCN2,–,> 10000 µM
COc1cc(Nc2c(C#N)cnc3cc(OCCCN4CCN(C)CC4)c(OC)cc23)c(Cl)cc1Cl,2.08,10.5 µM
O=CN/C=C/c1cccc(O)c1,–,> 97.1 µM
Nc1ccc2c(SCc3ccc([N+](=O)[O-])cc3)c3ccccc3nc2c1,–,36.4 µM
COC1=CC(c2ccc[nH]2)=N/C1=C\c1[nH]c(C)c(C(=O)CCCCC(=O)NC(C)(C)C)c1C,1.54,4.97 µM
O=c1ccn(C2CC(O)C(CO)O2)c(=O)[nH]1 (stereo not given),> 5000,> 5000 µM
O=C(N/C(=C/c1ccc(Cl)cc1Cl)c1nc2ccccc2s1)c1ccccc1,–,> 100 µM
CCOC(=O)c1cc2c(n1Cc1cccc(OC)c1)-c1oncc1CCC2,2.68,49.2 µM
COc1c(O)cc2oc(-c3ccc(O)cc3)cc(=O)c2c1O,–,36.8 µM
O=c1cc(-c2ccccc2F)[nH]c2ccc(N3CCCC3)cc12,–,> 100 µM
c1csc(-c2cn3nc(-c4c[nH]c5ccccc45)sc3n2)c1,5.46,> 100 µM
COc1cc2ccccc2oc1=O,–,> 100 µM
O=C1c2cccc(NCCN=Cc3cc([N+](=O)[O-])ccc3O)c2C(=O)c2c(NCCN=Cc3cc([N+](=O)[O-])ccc3O)cccc21,3.03,84.1 µM
COc1ccc2c(=O)cc(-c3ccncc3)oc2c1OC,–,55.2 µM
O=C(O)c1cc2ccc3ccccc3c2oc1=O,–,> 100 µM
COC(=O)[C@@]12OC[C@]34[C@H]([C@@H](O)[C@@H]1O)[C@@]1(C)[C@H](O)C(=O)C=C(C)[C@@H]1C[C@H]3OC(=O)C(OC(C)=O)[C@@H]24 (stereo not given in full),0.0364,0.309 µM

# System: SK-MEL-2 melanoma
# Assay: DTP human tumour cell line panel, 48 h
SMILES,GI50 [µM],TGI [µM]
C[C@]12CCc3sc(NCCc4ccccc4)nc3C1=CC[C@@H]1[C@@H]2CC[C@]2(C)C(=O)CC[C@@H]12,17,> 100
CCN(Cc1ccc(F)cc1)c1ccc(CO)c(F)c1,10.5,26.8
c1ccc(CN2CCC3(CC2)SSC2(CCN(Cc4ccccc4)CC2)S3)cc1,–,> 100
O=C(Cn1c(=O)c(-c2ccccc2)nc2ccccc21)Nc1ccc(F)cc1,60.6,> 100
